Where “and” joins values, the source holds several entries; their conditions need not be identical. Equal entries are not always repeated. Where two headings read alike, the source gives them in different places. Residues, ends and D or L forms follow the SMILES beside them.
Legend:
[1] = test system: MRSA USA 300; assay: Membrane depolarization assay, DiSC3(5); type: cell-based, Staphylococcus aureus
Experimental: MRSA USA 300 and K. pneumoniae ATCC 700603 were inoculated into 5 mL of LB and shaken at 37°C and 225 rpm to OD600 ≈ 0.5 (i.e., mid-logarithmic phase). Bacteria were collected by centrifugation at 8000 rpm for 5 min, and washed twice with assay buffer (5 mM HEPES, 20 mM glucose, 10 mM KCl, pH 7.2). Bacteria were resuspended in the assay buffer to OD595 ≈ 0.1. DiSC3(5) was added to the cells at final concentration of 0.3 µM, wrapped with aluminum foil, and incubated at 37°C, until a stable fluorescence was observed. Two microliter of compound or DMSO were transferred into 96-well black walled polystyrene plates, to which was added 98 µL per well of the dye-saturated bacterial cells to initiate the reaction. The final concentration of HT2 and RI-HT2 were 1 ×, 2 ×, 4 × and 8 × MIC. Plates were immediately read on an Envison at λex = 622 nm/ λem = 670 nm with a kinetic program (reading every 1 min for 10 min) until the maximal intensity achieved was observed.

[2] = test system: K. pneumoniae ATCC 700603; assay: Membrane permeability, SYTOX Green; type: cell-based, Klebsiella pneumoniae
Experimental: (§1) Fluorescent probe SYTOX^TM Green (Invitrogen/ Life Technologies, S7020) was used to analyze the effect of HT2 and RI-HT2 on membrane permeability of MRSA USA 300 and K. pneumoniae ATCC 700603 as described elsewhere. SYTOX^TM Green is a DNA binding dye that is fluorescent when bound to nucleic acids and only enters cells with compromised plasma membranes. MRSA USA 300 and K. pneumoniae ATCC 700603 were cultured in LB broth to mid log phase at 37 °C and washed with PBS and resuspended (OD595 ≈ 0.1) in the same buffer. SYTOX^TM Green was added into the cell suspension with a final concentration of 5 μM and being kept in dark for 20 min. 98 µL pre-treated cell suspension was transferred into wells of 96-well glass black plates. Then, 2 µL of compound or DMSO were added to initiate the reaction. The final concentrations of HT2 and RI-HT2 were 1 ×, 2 ×, 4 × and 8 × MIC. Fluorescence strength was measured with excitation/emission wavelength of 485/528 nm every 5 min for 60 min.

[3] = test system: MRSA USA 300; assay: Membrane permeability, SYTOX Green; type: cell-based, Staphylococcus aureus
Experimental: as §1

[4] = test system: MRSA USA 300; assay: Scanning electron microscopy; type: cell-based, Staphylococcus aureus; settings: 2 × MIC, 60 min
Experimental: Mid-log phase bacteria (MRSA USA 300 and K. pneumoniae ATCC 700603) grown in LB broth were adjusted to a density of 5 × 10^6 CFU/mL. […] All samples were centrifuged at 8000 rpm for 5 min, washed and then resuspended in PBS. Bacterial cells were fixed with 2.5% glutaraldehyde, and then incubated at 37°C on a glass slide for 20 min. Samples were dehydrated by passing through gradient ethanol (10%, 30%, 50%, 70%, 90%, and 100%) for 5 min at each concentration. Slides were dried with an automatic critical point drying instrument (Leica EM CPD300), and a small amount of gold was sputtered onto the samples using a sputter coater system to avoid charging in the microscope. Finally, the bacteria were visualized under a field-emission scanning electron microscopy (FESEM) device (Sirion 200).

[5] = MTT cytotoxicity assay; type: cell-based, human; settings: human
[6] = HEK293T cells, OD450, cytotoxicity (Fig 2a), replicates

SMILES: CC[C@H](C)[C@H](NC(=O)[C@H](CCCNC(=N)N)NC(=O)[C@H](CCCNC(=N)N)NC(=O)[C@H](CC(C)C)NC(=O)[C@H](Cc1ccccc1)NC(=O)[C@@H](N)CCCNC(=N)N)C(=O)N[C@@H](Cc1ccccc1)C(=O)N[C@@H](Cc1ccccc1)C(=O)N[C@@H](Cc1ccccc1)C(=O)N[C@@H](Cc1ccccc1)C(N)=O [HT2] (H-RFLRRIFFFF-NH2)
- concentration at which DiSC3(5) fluorescence intensity changed significantly [1]: 4 × MIC
- Fluorescence intensity ([2]; 2 × MIC, time 0 min): 501695 and 509033 and 502622
- Fluorescence intensity ([2]; 2 × MIC, time 5 min): 1090890 and 1043729 and 1064139
- Fluorescence intensity ([2]; 2 × MIC, time 10 min): 1729072 and 1765938 and 1671967
- Fluorescence intensity ([2]; 2 × MIC, time 15 min): 2450918 and 2522662 and 2381578
- Fluorescence intensity ([2]; 2 × MIC, time 20 min): 3050480 and 3158194 and 2985766
- Fluorescence intensity ([2]; 2 × MIC, time 25 min): 3669210 and 3714426 and 3535044
- Fluorescence intensity ([2]; 2 × MIC, time 30 min): 4083450 and 4189312 and 4054249
- Fluorescence intensity ([2]; 2 × MIC, time 35 min): 4565952 and 4682018 and 4543315
- Fluorescence intensity ([2]; 4 × MIC, time 0 min): 525974 and 544262 and 540364
- Fluorescence intensity ([2]; 4 × MIC, time 5 min): 1702985 and 1566300 and 1596913
- Fluorescence intensity ([2]; 4 × MIC, time 10 min): 2584709 and 2629728 and 2589896
- Fluorescence intensity ([2]; 4 × MIC, time 15 min): 4158305 and 4176033 and 4135763
- Fluorescence intensity ([2]; 4 × MIC, time 20 min): 5327990 and 5380046 and 5341458
- Fluorescence intensity ([2]; 4 × MIC, time 25 min): 6471332 and 6483549 and 6409400
- Fluorescence intensity ([2]; 4 × MIC, time 30 min): 7570513 and 7493394 and 7434627
- Fluorescence intensity ([2]; 4 × MIC, time 35 min): 8228675 and 8284610 and 8343092
- Fluorescence intensity ([2]; 8 × MIC, time 0 min): 870465 and 760375 and 885415
- Fluorescence intensity ([2]; 8 × MIC, time 5 min): 1479590 and 1252173 and 1198504
- Fluorescence intensity ([2]; 8 × MIC, time 10 min): 2304082 and 2051490 and 2261553
- Fluorescence intensity ([2]; 8 × MIC, time 15 min): 3691170 and 2983585 and 3730581
- Fluorescence intensity ([2]; 8 × MIC, time 20 min): 5088194 and 4586923 and 5243088
- Fluorescence intensity ([2]; 8 × MIC, time 25 min): 6892750 and 6059584 and 6984752
- Fluorescence intensity ([2]; 8 × MIC, time 30 min): 8250478 and 7253838 and 8382724
- Fluorescence intensity ([2]; 8 × MIC, time 35 min): 8870007 and 7712378 and 8970308
- Fluorescence intensity ([2]; 8 × MIC, time 40 min): 10334018
- Fluorescence intensity ([2]; MIC, time 0 min): 550162 and 549500 and 565924
- Fluorescence intensity ([2]; MIC, time 5 min): 788019 and 747687 and 700922
- Fluorescence intensity ([2]; MIC, time 10 min): 953632 and 962086 and 882779
- Fluorescence intensity ([2]; MIC, time 15 min): 1211256 and 1113347 and 1136029
- Fluorescence intensity ([2]; MIC, time 20 min): 1429978 and 1306982 and 1354221
- Fluorescence intensity ([2]; MIC, time 25 min): 1431312 and 1479927 and 1452172
- Fluorescence intensity ([2]; MIC, time 30 min): 1813062 and 1687978 and 1751083
- Fluorescence intensity ([2]; MIC, time 35 min): 1966664 and 1821317 and 1900107
- Fluorescence intensity ([2]; MIC, time 40 min): 2166119 and 2083647 and 2111537
- time to highest SYTOX Green fluorescence intensity ([2]; dose-dependent): ≤ 40 min
- Fluorescence intensity ([3]; 2 × MIC, time 25 min): 31855 and 32475 and 30920
- Fluorescence intensity ([3]; 2 × MIC, time 30 min): 32738 and 33363 and 31902
- Fluorescence intensity ([3]; 2 × MIC, time 35 min): 33433 and 34141 and 32365
- Fluorescence intensity ([3]; 2 × MIC, time 40 min): 33952 and 34791 and 32993
- Fluorescence intensity ([3]; 2 × MIC, time 45 min): 34234 and 35153 and 33304
- Fluorescence intensity ([3]; 2 × MIC, time 50 min): 34616 and 35530 and 33726
- Fluorescence intensity ([3]; 2 × MIC, time 55 min): 35021 and 36015 and 33983
- Fluorescence intensity ([3]; 2 × MIC, time 60 min): 35210 and 36080 and 33852
- Fluorescence intensity ([3]; 4 × MIC, time 25 min): 58334 and 57993 and 60104
- Fluorescence intensity ([3]; 4 × MIC, time 30 min): 59686 and 59179 and 61418
- Fluorescence intensity ([3]; 4 × MIC, time 35 min): 60470 and 60307 and 62172
- Fluorescence intensity ([3]; 4 × MIC, time 40 min): 61373 and 61097 and 62778
- Fluorescence intensity ([3]; 4 × MIC, time 45 min): 61952 and 61758 and 63164
- Fluorescence intensity ([3]; 4 × MIC, time 50 min): 62152 and 62388 and 63395
- Fluorescence intensity ([3]; 4 × MIC, time 55 min): 62374 and 62948 and 63676
- Fluorescence intensity ([3]; 4 × MIC, time 60 min): 62761 and 62954 and 64070
- Fluorescence intensity ([3]; 8 × MIC, time 0 min): 1486
- Fluorescence intensity ([3]; 8 × MIC, time 25 min): 61022 and 63005 and 63531
- Fluorescence intensity ([3]; 8 × MIC, time 30 min): 61916 and 63588 and 64175
- Fluorescence intensity ([3]; 8 × MIC, time 35 min): 62425 and 64473 and 64696
- Fluorescence intensity ([3]; 8 × MIC, time 40 min): 62708 and 64561 and 64714
- Fluorescence intensity ([3]; 8 × MIC, time 45 min): 62984 and 64891 and 65072
- Fluorescence intensity ([3]; 8 × MIC, time 50 min): 63293 and 64293 and 63594
- Fluorescence intensity ([3]; 8 × MIC, time 55 min): 63589 and 64553 and 65531
- Fluorescence intensity ([3]; 8 × MIC, time 60 min): 63666 and 65987 and 65753
- Fluorescence intensity ([3]; MIC, time 0 min): 1304 and 1201 and 1387
- Fluorescence intensity ([3]; MIC, time 25 min): 17216 and 17215 and 16315
- Fluorescence intensity ([3]; MIC, time 30 min): 17367 and 17359 and 16618
- Fluorescence intensity ([3]; MIC, time 35 min): 17590 and 17525 and 16584
- Fluorescence intensity ([3]; MIC, time 40 min): 17600 and 17633 and 16680
- Fluorescence intensity ([3]; MIC, time 45 min): 17644 and 17567 and 16788
- Fluorescence intensity ([3]; MIC, time 50 min): 17792 and 17686 and 16728
- Fluorescence intensity ([3]; MIC, time 55 min): 17738 and 17641 and 16766
- Fluorescence intensity ([3]; MIC, time 60 min): 17754 and 17734 and 16661
- time to maximum SYTOX Green fluorescence intensity ([3]; different concentrations): ≤ 10 min
- cell surface morphology by SEM (in words) [4]: rough, shrunken, wrinkled and partially damaged
- IC50 at 72 h [5]: > 100 µM
- viability at 72 h, 0.39 µM ([5]; HEK293T cells, HEK293T, 0.39 µM, read-out: OD450, cytotoxicity (Fig 2a), replicates): 96.7%
- viability at 72 h, 6.25 µM ([5]; HEK293T cells, HEK293T, 6.25 µM, read-out: OD450, cytotoxicity (Fig 2a), replicates): 99.2%
- viability at 72 h, 12.5 µM ([5]; HEK293T cells, HEK293T, 12.5 µM, read-out: OD450, cytotoxicity (Fig 2a), replicates): 92.8%
- viability at 72 h, 0.39 µM [5, 6]: 100%
- viability at 72 h, 0.78 µM [5, 6]: 94.2%
- viability at 72 h, 1.57 µM [5, 6]: 93.1%
- viability at 72 h, 3.13 µM [5, 6]: 95.4%
- viability at 72 h, 25 µM [5, 6]: 93.2%
- viability at 72 h, 50 µM [5, 6]: 98.4%
- viability at 72 h, 100 µM [5, 6]: 94.3%
